# Measurements from US7108845B2, “Methods of synthesis and use of radiolabelled platinum chemotherapeutic agents” (Australian Nuclear Science & Technology Organisation, priority 2000, dated 2006).
# Experiments:
# oesophageal cancer [1] = assay: Pilot clinical study: imaging of uptake of ^195mPt-Cisplatin in lesions; assay type: in vivo, patients
# Procedure: As part of a pilot study to evaluate the use of ^195mPt-Cisplatin and ^195mPt Carboplatin for prognosis of cancer, two patients were injected with ^195mPt-Cisplatin prepared as described in Example 2.
# (§1) Patient No. 1 had oesophageal cancer, with one large lesion in the mediastinal region and large metastases in the liver. F-18-DG imaging confirmed the presence of both lesions. The patient was injected with ^195mPt-Cisplatin (100 MBq; specific activity 4.2 MBq/mg cisplatin) and imaged over a 5 day period. […] The patient was placed on a normal cisplatin chemotherapy in combination with radiation.
# Patient No. 2 had oesophageal cancer. CT confirmed a large lesion in the mediastinal region. The patient was injected with ^195mPt-Cisplatin (50 MBq: specific activity 3.6 MBq/mg cisplatin) and Imaged over a 3 day period. […] The patient has undergone cisplatin chemotherapy and is being monitored for response to treatment.
# oesophageal cancer [2] = assay: Response to normal cisplatin chemotherapy in combination with radiation; assay type: in vivo, patients; details: Patient No. 1, after 2 months
# Procedure: as §1
Compound,"uptake of the radiolabelled cisplatin in lesions (oesophageal cancer [1]; Patient No. 1, lesion in mediastinal region and liver metastases, injected 100 MBq (4.2 MBq/mg cisplatin), imaged over a 5 day period)","uptake of the ^195mPt-Cisplatin in the mediastinal region (oesophageal cancer [1]; Patient No. 2, large lesion in mediastinal region, injected 50 MBq (3.6 MBq/mg cisplatin), imaged over a 3 day period)",response to treatment (oesophageal cancer [2])
"N.N.[Cl][195Pt][Cl] [^195mPt-Cisplatin, [^195mPt]Cisplatin]",negligible uptake,significant uptake,–
"N.N.[Cl][Pt][Cl] [cisplatin, cis-dichlorodiammine-platinum(II)]",–,–,no evidence of response to treatment
